According to patent publication US6458580B1, “Fungal sulphur source and method of using the same” (Commonwealth Scientific and Industrial Research Organisation, priority 1997, dated 2002):
Values joined by “and” are separate entries in the source; they are usually repeats but may differ in a detail not shown here. Identical values can stand only once.

Assays:
[1] = Effect of infusion on feed intake and digestibility; assay type: in vivo, sheep; conditions: for Digested DM, MPA / Digestibility (% DM), MPA / Intake DM, MPA: MPA infused at 192 mg Sulphur/sheep/day; for Digested DM, MPA / Digestibility (% DM), MPA / Intake DM, MPA / Digested DM, % (+) / Digestibility, % (+) / Intake DM, % (+) increase after infusion of MPA: individual sheep and Aver. n = 13; for Digested DM, % (+) / Digestibility, % (+) / Intake DM, % (+) increase after infusion of MPA: versus control period
Procedure: Feed was prepared as previously described (see example 4). Initially 22 sheep were fed 1 kg of alkali straw/day in the animal house for 4 days to select out sheep not eating the diet. 19 sheep were weighted and transferred to metabolism cages and feed the alkali straw diet ad-lib. Sheep were fed and on the following day the feed refusal weighted and if less then 100 g remained a further 100 g was fed; if 100-200g of feed remained the sheep was given the same amount of feed; if over 200 g of feed was left the sheep was given 100 g less feed. Over the following week another 6 sheep were moved out of the experiment (usually due to very low or erratic intakes). […] After 14 days infusion the collection period of 7 days commenced. Feed refusals were weighted, recorded, and a sample of up to 200 g/day pooled for subsequent analyses. Spilt feed was collected daily, weighted, recorded, and discarded. Faeces were collected with separators that excluded urine. The faeces were weighed and sub-sampled and pooled for subsequent analyses. Pooled faeces and feed were stored at −20° C. and then dried in a hot air oven (faeces were initially dried at 70° C.) at 100° C. cooled and weighted to determine dry weight (DM). Following the last sampling the infusion was stopped in the first group of sheep and on the following day the infusion treatment was begun in the other group of seven sheep. The second period (the crossover) was conducted in the same way as the first period with the same samples being taken at the same times.

[2] = test system: Neocallimastix isolates LM1 and TGB1; Piromyces isolates SM1, CS15 and TZB2; experiment: In vitro growth of selected fungal isolates at different doses of MPA; assay type: cell-based; conditions: MPA 0-1.6 mM, media with 0.5% CHO, FIGS. 2a and 2b
Procedure: Five isolates were recovered in standard media from cryopreservation and one isolate was obtained from the culture collection. Table 2 below indicates nature of isolates.
Each isolate was transferred from standard media to a modification of the low sulphur media described in Example 1. Carbohydrates (glucose+cellobiose) were added to give either 0.2% (in subculture phase ) or 0.5% (in test phase)
. Triplicate tubes of the three concentrations were inoculated with each isolate and after 3-4 days subcultured using the tubes with the best apparent growth. […] This was to be the final assessment however as some growth was obtained in the 0 controls so all tubes were subcultured again into the same type of media. After a weeks incubation growth was determined by the decrease in media pH as described in Example 1.

[3] = test system: rumen fungi; experiment: Effect of different intra-ruminal doses on fungal zoospore numbers in the rumen; assay type: in vivo, sheep
Procedure: Six cross-bred sheep [[…]] having rumen cannula were moved metabolism cages equipped with automatic feeders. They were given eight equal buckets of feed a day (three hourly) and offered water ad-lib. The sheep were offered 1.1 kg of a low sulphur feed (see below). After a period of three weeks on the diet rumen digesta was collected and rumen fluid (150 ml)was taken for zoospore counts. (An extra 100 ml of rumen digest was taken from each animal combined and mixed and 100 ml returned to each rumen to minimise differences between animals.) Zoospores were assessed by standard methods for handling anaerobic fungi. Serial dilutions of rumen fluid were prepared using an anaerobic diluent. Agar roll tubes were inoculated using a syringe with 0.2 ml of either a dilution of rumen fluid or undiluted rumen fluid. The media used was one mimicking the rumen environment but without added rumen fluid and with antibiotics (penicillin and streptomycin) added to stop overgrowth by rumen bacteria. After incubation the number of thallus forming units were counted and the number of zoospores in the rumen fluid calculated. […] The sheep were initially infused at the rate of 0.4 mMoles sulphur per day per 4 liters (ie 0.1 mM in rumen) This was equivalent to 12.67 mg Sulphur/day. The same protocols were used with successively higher doses. […] Each infusion was for one weeks before sampling rumen fluid and infusing the higher dose. […] Wheat straw was milled and approximately 40 kg quantities were transferred from the Gell feed mill to a mixer where 4 l of 40% NaOH was added while mixing. The feed was bagged (approximately two bags per 40 kg) and left for several days before a minerals mix was added. Two bags were placed in the mixer and the compounds in Table 3 were added. Trace elements were made up in 140 ml in water and were added to the urea which was previously dissolved in 25 Liters of water. This solution was then added to two bags of alkali treated feed while mixing. The remaining dry chemicals were mixed and the appropriate amount added (1.638 kg) onto the mixing feed. […]

O=C(O)CCS [MPA, 3-mercaptopropanoic acid]
response in digestive performance to infusion ([1]; 192 mg Sulphur/day/sheep, with the exception of one animal): strong, positive, response | Digested DM, MPA ([1]; Table 4): 357.26 g/day and 603.65 g/day and 558.00 g/day and 518.94 g/day and 806.76 g/day and 603.24 g/day and 630.64 g/day and 662.31 g/day and 673.01 g/day and 657.21 g/day and 714.69 g/day and 347.27 g/day and 414.97 g/day | Digestibility (% DM), MPA ([1]; Table 4): 50.799 % DM and 51.891 % DM and 45.708 % DM and 52.812 % DM and 58.076 % DM and 53.589 % DM and 46.808 % DM and 51.433 % DM and 53.840 % DM and 51.933 % DM and 48.119 % DM and 54.648 % DM and 51.522 % DM | Intake DM, MPA ([1]; Table 4): 703 g/day and 1163 g/day and 1221 g/day and 983 g/day and 1389 g/day and 1126 g/day and 1347 g/day and 1288 g/day and 1250 g/day and 1265 g/day and 1485 g/day and 635 g/day and 805 g/day | Digested DM, MPA ([1]; Table 4, mean of 13 sheep): 581 g/day | Digestibility (% DM), MPA ([1]; Table 4, mean of 13 sheep): 51.6 % DM | Intake DM, MPA ([1]; Table 4, mean of 13 sheep): 1128 g/day | Digested DM, % (+) ([1]; Table 4): 38.13% and 51.61% and 32.51% and 37.28% and 41.04% and 36.94% and 24.76% and 17.23% and 46.34% and 40.49% and 9.57% and 38.47% and 63.31% | Digestibility, % (+) ([1]; Table 4): 5.019% and 7.795% and 2.610% and 1.453% and 5.112% and 7.462% and 2.544% and 0.444% and 2.855% and 4.777% and 0.002% and 7.459% and 7.799% | Intake DM, % (+) increase after infusion of MPA ([1]; Table 4): 24.5% and 28.8% and 24.9% and 33.5% and 28.6% and 17.9% and 18.0% and 16.2% and 38.6% (2×) and 27.5% and 9.6% and 19.6% | Digested DM, % (+) ([1]; Table 4, mean of 13 sheep): 36.75% | Digestibility, % (+) ([1]; Table 4, mean of 13 sheep): 4.26% | Intake DM, % (+) increase after infusion of MPA ([1]; Table 4, mean of 13 sheep): 25.1% | Intake DM, MPA ([1]; Table 5): 805 g/day and 703 g/day and 1163 g/day and 1221 g/day and 983 g/day and 1389 g/day and 1126 g/day and 1347 g/day and 1288 g/day and 1250 g/day and 1265 g/day and 1485 g/day and 635 g/day | Intake DM, MPA ([1]; Table 5, mean): 1128 g/day | Intake DM, % (+) increase after infusion of MPA ([1]; Table 5): 38.6% (2×) and 24.5% and 28.8% and 24.9% and 33.5% and 28.6% and 17.9% and 18.0% and 16.2% and 27.5% and 9.6% and 19.6% | Intake DM, % (+) increase after infusion of MPA ([1]; Table 5, mean): 25.1% | growth response of sheep versus non-sheep isolates [2]: no clear difference between the sheep and non-sheep isolates | levels of fungi ([3]; dose of 0.75 mM (95 mg S/day), four of the six animals): ≈ 1000 /ml | optimum level of MPA ([3]; rumen concentration, 190 mg S/day, very low S content diet): 1.5 mM | relation between concentration of MPA in the rumen and numbers of zoospores in rumen fluid ([3]; sheep on low sulphur diet (0.052% sulphur), 0-5.0 mM in rumen, seven days per dose, FIG. 3): clear dose response
